US20130253202A1, “METHOD OF TREATING HEMATOLOGICAL CANCERS” (Niiki Pharma Inc., priority 2010, published 2013)

Assays:
WSU-DLCL2 cells [1] = settings: Aref et al. 1999, Levi et al. 2010; cited from earlier work
DoHH2 cells = assay: Anti-proliferation assay (Cell Titer-Glo) in DoHH2 follicular lymphoma cells; type: cell-based, human; settings: 96 total hours of culture, read-out: IC50 in DoHH2 (inhibition of cell growth)
Procedure: (§1) To determine the antiproliferative activity of sodium trans-[tetrachlorobis(1H-indazole)ruthenate(III)] in human lymphoma tumor cell lines, anti-proliferation assays were conducted in the DoHH2 (follicular lymphoma), Granta 519 (mantle cell lymphoma), and WSU-DLCL2 (diffuse large B cell lymphoma) cell lines. The DoHH2 Human EBV-negative B Cell Lymphoma cells were seeded with 5,000 cells/well and grown in RPMI1640 medium containing 20% FBS, and 2mM L-Glutamine. The Granta 519 Human Mantle Cell Lymphoma cells were seeded with 10,000 cells/well and grown in DMEM medium containing 10% FBS, and 2 mM L-Glutamine. The WSU-DLCL2 Human B Cell Lymphoma cells were seeded with 5,000 cells/well and grown in RPMI1640 medium containing 10% FBS, and 2mM L-Glutamine. Specifically, the human tumor cells were placed in a 96-well microculture plate at the appropriate density for 96 hours of total growth time. After 24 hours of incubation in a humidified incubator at 37° C. with 5% CO2 and 95% air, serially diluted test agents in growth medium were added to each well. After 96 total hours of culture in a CO2 incubator, the plates were processed with Cell Titer-Glo (Promega #G7571) according to manufacturer's instructions. Luminescence was detected using a Tecan GENios microplate reader. Percent inhibition of cell growth was calculated relative to untreated control wells. […]

Granta 519 cells = assay: Anti-proliferation assay (Cell Titer-Glo) in Granta 519 mantle cell lymphoma cells; type: cell-based, human; settings: 96 total hours of culture, read-out: IC50 in Granta 519 (inhibition of cell growth)
Procedure: as §1

WSU-DLCL2 cells [2] = assay: Anti-proliferation assay (Cell Titer-Glo) in WSU-DLCL2 diffuse large B cell lymphoma cells; type: cell-based, human; settings: 96 total hours of culture, read-out: IC50 in WSU-DLCL2 (inhibition of cell growth)
Procedure: as §1

MV4-11 cells [3] = assay: Anti-proliferation assay (Cell Titer-Glo) in MV4-11 human leukemia cells; type: cell-based
Procedure: The human leukemia cell line MV4-11 cells [biphenotypic B myelomonocytic leukemia, lymphoblast morphology] were placed in a 96-well microculture plate (Costar white, flat bottom #3917) in a total volume of 90 μL/well. After 24 hours of incubation in a humidified incubator at 37° C. with 5% CO2 and 95% air, 10 μL of 10X, serially diluted sodium trans-[tetrachlorobis(1H-indazole)ruthenate(III)] in growth medium was added to each well. After 96 total hours of culture in a CO2 incubator, the plated cells and Cell Titer-Glo (Promega #G7571) reagents were brought to room temperature to equilibrate for 30 minutes. 100 μL of Cell Titer-Glo® reagent was added to each well. The plate was shaken for 2 minutes and then left to equilibrate for 10 minutes before reading luminescence on the Tecan GENios microplate reader. Percent inhibition of cell growth was calculated relative to untreated control wells. All tests were performed in duplicate at each concentration level. The IC50 value for the test agent was estimated using Prism 3.03 by curve-fitting the data using the following four parameter-logistic equation: […]

MV4-11 cells [4] = settings: Colado et al. 2008, Scatena et al. 2010; cited from earlier work

Compound: N[C@@H](Cc1ccc(N(CCCl)CCCl)cc1)C(=O)O [melphalan]
- resistance of WSU-DLCL2 cells to the drug (WSU-DLCL2 cells [1]): resistant

Compound: [Cl][Ru-]([Cl])([Cl])[Cl].[Na+].c1ccc2[nH]ncc2c1.c1ccc2[nH]ncc2c1 [sodium trans-[tetrachlorobis(1H-indazole)ruthenate(III)]]
- IC50 (DoHH2 cells): 7.18 µM
- IC50 (Granta 519 cells): 63.6 µM
- IC50 (WSU-DLCL2 cells [2]): 25 µM
- IC50 (MV4-11 cells [3]; 96 total hours of culture, compound added after 24 hours, Cell Titer-Glo, read-out: IC50 on MV4-11 (inhibition of cell growth)): 8.53 µM
- inhibition of proliferation of MV4-11 cells (FIG. 1), dose-dependent maximum (MV4-11 cells [3]; exposure time 24 hours, % of control): up to 100%

Compound: COc1cccc2c1C(=O)c1c(O)c3c(c(O)c1C2=O)C[C@@](O)(C(=O)CO)C[C@@H]3O[C@H]1C[C@H](N)[C@H](O)[C@H](C)O1 [doxorubicin]
- resistance of WSU-DLCL2 cells to the drug (WSU-DLCL2 cells [1]): resistant
- resistance of MV4-11 cells to the drug (MV4-11 cells [4]): resistant

Compound: Nc1ccn([C@@H]2O[C@H](CO)[C@@H](O)[C@@H]2O)c(=O)n1 [Ara-C, cytarabine]
- resistance of MV4-11 cells to the drug (MV4-11 cells [4]): resistant
